The target in assay [1] is Dual specificity protein phosphatase 6 (Rattus norvegicus, UniProt Q64346). Briefly: MKP-3 phosphatase inhibitors, primary screen, biochemical, rat enzyme, in vitro (AID 425).
For assay [2], the target named is Induced myeloid leukemia cell differentiation protein Mcl-1 (Homo sapiens, UniProt Q07820). The format is functional.
Assay [3] concerns the target T1, Dual specificity protein phosphatase 3 (Homo sapiens, UniProt P51452). As to the kind of experiment: VHR1 phosphatase inhibitors, primary screen, biochemical, absorbance, uHTS (AID 1654).
For assay [4], the target named is T1, Dual specificity protein phosphatase 3. As to the kind of experiment: VHR1 phosphatase inhibitors, biochemical (AID 1878).
The target of assay [5] is Trypsin (Sus scrofa, UniProt P00761). As to the kind of experiment: porcine trypsin inhibitors, dose response, selectivity assay for Rce1 protease inhibitor project, biochemical, quenched peptide fluorescence, cherry-pick (AID 488789).
Trypsin, sequence (P00761 whole entry): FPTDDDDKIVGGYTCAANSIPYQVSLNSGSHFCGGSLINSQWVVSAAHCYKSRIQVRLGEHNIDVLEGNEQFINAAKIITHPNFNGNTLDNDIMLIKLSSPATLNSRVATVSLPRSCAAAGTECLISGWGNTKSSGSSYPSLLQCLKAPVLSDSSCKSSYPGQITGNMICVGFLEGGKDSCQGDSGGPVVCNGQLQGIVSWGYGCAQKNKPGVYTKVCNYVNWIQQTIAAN
The target of assay [6] is CAAX prenyl protease 1 (Saccharomyces cerevisiae S288c, UniProt P47154). Briefly: Ste24 protease inhibitors, dose response, biochemical, S. cerevisiae, plate reader, cherry-pick (AID 488815).
CAAX prenyl protease 1, sequence (P47154 whole entry): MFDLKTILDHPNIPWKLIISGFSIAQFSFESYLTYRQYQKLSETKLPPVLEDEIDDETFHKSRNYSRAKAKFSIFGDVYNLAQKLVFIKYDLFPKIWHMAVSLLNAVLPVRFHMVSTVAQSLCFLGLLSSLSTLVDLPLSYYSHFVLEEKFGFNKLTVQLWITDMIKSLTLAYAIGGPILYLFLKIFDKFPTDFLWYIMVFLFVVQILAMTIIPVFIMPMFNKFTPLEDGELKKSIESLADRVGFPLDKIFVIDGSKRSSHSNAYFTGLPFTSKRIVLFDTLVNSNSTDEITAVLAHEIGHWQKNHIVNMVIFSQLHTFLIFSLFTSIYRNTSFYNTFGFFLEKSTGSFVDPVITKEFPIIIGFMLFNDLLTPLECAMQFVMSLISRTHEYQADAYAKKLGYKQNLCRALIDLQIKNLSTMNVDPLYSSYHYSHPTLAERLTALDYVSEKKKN
For assay [7], the target named is T2, CAAX prenyl protease 2 (Saccharomyces cerevisiae S288c, UniProt Q03530).
T2 sequence (Q03530 whole entry): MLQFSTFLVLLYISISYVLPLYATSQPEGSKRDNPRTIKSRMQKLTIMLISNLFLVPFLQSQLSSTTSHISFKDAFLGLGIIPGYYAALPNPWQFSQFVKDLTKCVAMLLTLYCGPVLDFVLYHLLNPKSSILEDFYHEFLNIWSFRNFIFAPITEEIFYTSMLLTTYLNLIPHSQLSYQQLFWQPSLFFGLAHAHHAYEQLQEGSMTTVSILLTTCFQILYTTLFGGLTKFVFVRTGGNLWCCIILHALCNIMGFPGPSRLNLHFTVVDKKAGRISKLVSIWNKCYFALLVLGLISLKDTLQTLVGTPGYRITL
The format is biochemical.

The target of assay [8] is G-protein coupled receptor 35 (Homo sapiens, UniProt Q9HC97). As to the kind of experiment: SAR Analysis for the identification of Selective Antagonists of ERK1/2 Activity in GPR35-Overexpressing U2OS Cells. [Related pubchem assays: 2079, 2058 ]. The format is functional, cell-based.
G-protein coupled receptor 35, sequence (Q9HC97 whole entry): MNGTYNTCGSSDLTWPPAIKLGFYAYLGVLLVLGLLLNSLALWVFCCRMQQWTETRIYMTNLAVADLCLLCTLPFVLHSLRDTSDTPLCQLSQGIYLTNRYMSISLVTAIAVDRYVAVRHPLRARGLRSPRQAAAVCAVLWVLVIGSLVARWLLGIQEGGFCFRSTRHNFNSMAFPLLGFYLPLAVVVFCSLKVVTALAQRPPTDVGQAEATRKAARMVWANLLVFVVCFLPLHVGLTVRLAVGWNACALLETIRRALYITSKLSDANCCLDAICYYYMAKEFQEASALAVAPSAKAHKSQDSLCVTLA
The target in assay [9] is G-protein coupled receptor 55 (Homo sapiens, UniProt Q9Y2T6). Briefly: GPR55 antagonists, SAR follow-up, counter-screen for GPR35 antagonist project, imaging, image-based (AID 2397). The format is functional. (A counterscreen serves to expose hits that act by an unwanted route or on another target.)
G-protein coupled receptor 55, sequence (Q9Y2T6 whole entry): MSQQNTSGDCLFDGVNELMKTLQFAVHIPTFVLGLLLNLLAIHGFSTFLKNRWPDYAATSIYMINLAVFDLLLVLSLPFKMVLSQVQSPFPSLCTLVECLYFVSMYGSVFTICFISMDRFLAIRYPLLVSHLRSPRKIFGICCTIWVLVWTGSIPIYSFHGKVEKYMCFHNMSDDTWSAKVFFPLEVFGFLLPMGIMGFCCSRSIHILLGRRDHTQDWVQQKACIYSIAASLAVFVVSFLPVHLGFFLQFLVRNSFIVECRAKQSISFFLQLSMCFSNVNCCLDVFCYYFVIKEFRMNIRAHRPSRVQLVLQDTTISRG

Molecules are shown by their SMILES. The source made the active and inactive calls.

T1 sequence (P51452 whole entry): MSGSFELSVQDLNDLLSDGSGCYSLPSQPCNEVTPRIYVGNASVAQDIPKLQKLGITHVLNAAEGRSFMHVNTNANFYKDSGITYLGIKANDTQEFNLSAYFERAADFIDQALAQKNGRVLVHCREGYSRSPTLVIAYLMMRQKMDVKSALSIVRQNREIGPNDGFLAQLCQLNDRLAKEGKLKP
Dual specificity protein phosphatase 6, sequence (Q64346 whole entry): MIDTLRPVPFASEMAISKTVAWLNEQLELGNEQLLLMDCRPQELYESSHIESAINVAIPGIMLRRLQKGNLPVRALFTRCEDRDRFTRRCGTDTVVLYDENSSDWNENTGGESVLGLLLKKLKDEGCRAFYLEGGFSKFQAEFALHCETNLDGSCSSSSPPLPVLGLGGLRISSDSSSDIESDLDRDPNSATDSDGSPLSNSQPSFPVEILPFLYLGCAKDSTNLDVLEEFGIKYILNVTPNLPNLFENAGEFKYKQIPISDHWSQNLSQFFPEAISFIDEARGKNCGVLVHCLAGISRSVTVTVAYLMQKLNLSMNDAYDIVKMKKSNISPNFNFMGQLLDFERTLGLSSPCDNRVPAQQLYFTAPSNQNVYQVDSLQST
Induced myeloid leukemia cell differentiation protein Mcl-1, sequence (Q07820 whole entry): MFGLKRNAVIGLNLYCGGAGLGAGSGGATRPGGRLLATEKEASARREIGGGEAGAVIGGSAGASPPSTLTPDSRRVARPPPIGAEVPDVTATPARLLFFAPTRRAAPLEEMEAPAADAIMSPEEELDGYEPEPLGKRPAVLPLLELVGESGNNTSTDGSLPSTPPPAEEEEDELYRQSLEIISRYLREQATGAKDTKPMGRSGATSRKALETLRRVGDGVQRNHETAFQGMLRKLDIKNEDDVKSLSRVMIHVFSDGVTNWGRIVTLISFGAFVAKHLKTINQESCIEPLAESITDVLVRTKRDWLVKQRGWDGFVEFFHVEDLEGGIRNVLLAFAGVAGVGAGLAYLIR

For `Cc1cc2nc(-c3ccc(SCc4ccc(C(=O)O)cc4)nc3)[nH]c2cc1C`, the IC50 (usually the point on the concentration scale where inhibition reaches its midpoint) is 25.8 µM (active) in assay [1], 7.97 µM (active) in [2], 13.9 µM (active) in assay [3] and 5.73 µM (active) in assay [4].

On to `COc1ccccc1-c1coc2c(CN3CCN(C)CC3)c(O)ccc2c1=O`, for which the AC50 (usually the midpoint of the concentration-response curve, whichever way the signal moves) is 28.3 µM (active) in assay [5], 1.57 µM (active) in assay [6] and 97.9 µM (active) in assay [7].

`CCOc1ccc(NC(=O)CSc2nc3ccsc3c(=O)n2Cc2ccc(C(=O)O)cc2)cc1`: the results for the IC50 in assay [8] and in assay [9] were 14.5 µM (not active) and > 32 µM (inactive), respectively.

(Values after ChEMBL document CHEMBL1201862, “PubChem BioAssay data set” (2004).)
